In patent publication US12544395B2, “Combination compositions comprising a beta-lactamase inhibitor and uses thereof” (priority 2018, dated 2026):

Tests used:
Format in all cases: cell-based
E. coli SI-LP377 = assay: microbe, parasite or virus in culture
K. pneumoniae KI (KCl) = assay: Broth microdilution MIC (strain enzymes: TEM-10)
E. coli 3327 = assay: Broth microdilution MIC (strain enzymes: TEM-1, SHV-12)
E. coli 2150 = assay: Broth microdilution MIC (strain enzymes: SHV-3, TEM-1)
K. oxytoca 496 #2 = assay: Broth microdilution MIC (strain enzymes: SHV-105, TEM-1)
K. pneumoniae 3151 = assay: Broth microdilution MIC (strain enzymes: SHV-12, TEM-1)

CCC(=O)N[C@H]1Cc2cccc(C(=O)O)c2OB1O [Compound 2, (R)-2-hydroxy-3-propionamido-3,4-dihydro-2H-benzo[e][1,2]oxaborinine-8-carboxylic acid]
0.25 µg/mL: MIC of cefixime (CFM) (E. coli SI-LP377; with inhibitor at 2 μg/mL) | MIC of cefixime (CFM) (K. pneumoniae KI (KCl); with inhibitor at 4 μg/mL) | MIC of ceftibuten (CTB) (E. coli 3327; with inhibitor at 1 μg/mL) | MIC of ceftibuten (CTB) (E. coli 3327; with inhibitor at 2 μg/mL) | MIC of ceftibuten (CTB) (E. coli 3327; with inhibitor at 4 μg/mL) | MIC of cefixime (CFM) (E. coli 2150; with inhibitor at 4 μg/mL) | MIC of cefalexin (LEX) (K. oxytoca 496 #2; with inhibitor at 1 μg/mL) | MIC of cefdinir (CDR) (K. oxytoca 496 #2; with inhibitor at 1 μg/mL) | MIC of cefixime (CFM) (K. oxytoca 496 #2; with inhibitor at 1 μg/mL) | MIC of cefalexin (LEX) (K. oxytoca 496 #2; with inhibitor at 2 μg/mL) | MIC of cefdinir (CDR) (K. oxytoca 496 #2; with inhibitor at 2 μg/mL) | MIC of ceftibuten (CTB) (K. pneumoniae 3151; with inhibitor at 2 μg/mL) | MIC of ceftibuten (CTB) (K. pneumoniae 3151; with inhibitor at 4 μg/mL)
0.06 µg/mL: MIC of ceftibuten (CTB) (K. pneumoniae KI (KCl); with inhibitor at 2 μg/mL) | MIC of ceftibuten (CTB) (E. coli 2150; with inhibitor at 4 μg/mL) | MIC of cefalexin (LEX) (K. oxytoca 496 #2; with inhibitor at 4 μg/mL) | MIC of cefdinir (CDR) (K. oxytoca 496 #2; with inhibitor at 4 μg/mL) | MIC of cefixime (CFM) (K. oxytoca 496 #2; with inhibitor at 4 μg/mL)
16 µg/mL: MIC of cefixime (CFM) (K. pneumoniae 3151; with inhibitor at 1 μg/mL)
0.5 µg/mL: MIC of cefalexin (LEX) (E. coli 3327; with inhibitor at 1 μg/mL) | MIC of cefdinir (CDR) (E. coli 3327; with inhibitor at 1 μg/mL) | MIC of cefalexin (LEX) (E. coli 3327; with inhibitor at 2 μg/mL) | MIC of cefdinir (CDR) (E. coli 3327; with inhibitor at 2 μg/mL) | MIC of cefixime (CFM) (E. coli 3327; with inhibitor at 2 μg/mL) | MIC of cefalexin (LEX) (E. coli 3327; with inhibitor at 4 μg/mL) | MIC of cefdinir (CDR) (E. coli 3327; with inhibitor at 4 μg/mL) | MIC of cefixime (CFM) (E. coli 3327; with inhibitor at 4 μg/mL) | MIC of cefixime (CFM) (E. coli 2150; with inhibitor at 1 μg/mL) | MIC of cefalexin (LEX) (E. coli 2150; with inhibitor at 2 μg/mL) | MIC of cefdinir (CDR) (E. coli 2150; with inhibitor at 2 μg/mL) | MIC of cefixime (CFM) (E. coli 2150; with inhibitor at 2 μg/mL) | MIC of cefalexin (LEX) (E. coli 2150; with inhibitor at 4 μg/mL) | MIC of cefdinir (CDR) (E. coli 2150; with inhibitor at 4 μg/mL) | MIC of cefalexin (LEX) (K. pneumoniae 3151; with inhibitor at 4 μg/mL) | MIC of cefdinir (CDR) (K. pneumoniae 3151; with inhibitor at 4 μg/mL)
0.125 µg/mL: MIC of ceftibuten (CTB) (E. coli SI-LP377; with inhibitor at 2 μg/mL) | MIC of cefixime (CFM) (E. coli SI-LP377; with inhibitor at 4 μg/mL) | MIC of ceftibuten (CTB) (E. coli SI-LP377; with inhibitor at 4 μg/mL) | MIC of cefalexin (LEX) (K. pneumoniae KI (KCl); with inhibitor at 1 μg/mL) | MIC of cefdinir (CDR) (K. pneumoniae KI (KCl); with inhibitor at 1 μg/mL) | MIC of ceftibuten (CTB) (K. pneumoniae KI (KCl); with inhibitor at 1 μg/mL) | MIC of cefalexin (LEX) (K. pneumoniae KI (KCl); with inhibitor at 2 μg/mL) | MIC of cefdinir (CDR) (K. pneumoniae KI (KCl); with inhibitor at 2 μg/mL) | MIC of cefalexin (LEX) (K. pneumoniae KI (KCl); with inhibitor at 4 μg/mL) | MIC of cefdinir (CDR) (K. pneumoniae KI (KCl); with inhibitor at 4 μg/mL) | MIC of ceftibuten (CTB) (K. pneumoniae KI (KCl); with inhibitor at 4 μg/mL) | MIC of ceftibuten (CTB) (E. coli 2150; with inhibitor at 1 μg/mL) | MIC of ceftibuten (CTB) (E. coli 2150; with inhibitor at 2 μg/mL) | MIC of ceftibuten (CTB) (K. oxytoca 496 #2; with inhibitor at 1 μg/mL) | MIC of cefixime (CFM) (K. oxytoca 496 #2; with inhibitor at 2 μg/mL) | MIC of ceftibuten (CTB) (K. oxytoca 496 #2; with inhibitor at 2 μg/mL) | MIC of ceftibuten (CTB) (K. oxytoca 496 #2; with inhibitor at 4 μg/mL)
1 µg/mL: MIC of cefalexin (LEX) (E. coli SI-LP377; with inhibitor at 2 μg/mL) | MIC of cefdinir (CDR) (E. coli SI-LP377; with inhibitor at 2 μg/mL) | MIC of cefalexin (LEX) (E. coli SI-LP377; with inhibitor at 4 μg/mL) | MIC of cefdinir (CDR) (E. coli SI-LP377; with inhibitor at 4 μg/mL) | MIC of cefixime (CFM) (K. pneumoniae KI (KCl); with inhibitor at 1 μg/mL) | MIC of cefixime (CFM) (K. pneumoniae KI (KCl); with inhibitor at 2 μg/mL) | MIC of cefixime (CFM) (E. coli 3327; with inhibitor at 1 μg/mL) | MIC of cefalexin (LEX) (E. coli 2150; with inhibitor at 1 μg/mL) | MIC of cefdinir (CDR) (E. coli 2150; with inhibitor at 1 μg/mL) | MIC of ceftibuten (CTB) (K. pneumoniae 3151; with inhibitor at 1 μg/mL) | MIC of cefalexin (LEX) (K. pneumoniae 3151; with inhibitor at 2 μg/mL) | MIC of cefdinir (CDR) (K. pneumoniae 3151; with inhibitor at 2 μg/mL)
8 µg/mL: MIC of cefixime (CFM) (K. pneumoniae 3151; with inhibitor at 2 μg/mL)
2 µg/mL: MIC of cefalexin (LEX) (K. pneumoniae 3151; with inhibitor at 1 μg/mL) | MIC of cefdinir (CDR) (K. pneumoniae 3151; with inhibitor at 1 μg/mL) | MIC of cefixime (CFM) (K. pneumoniae 3151; with inhibitor at 4 μg/mL)
